Molecular target: mGlu5 WT (Homo sapiens, UniProt P41594)
Assay: cell-based
Parameters: species or system HEK293

mGlu5 WT, sequence (P41594 whole entry): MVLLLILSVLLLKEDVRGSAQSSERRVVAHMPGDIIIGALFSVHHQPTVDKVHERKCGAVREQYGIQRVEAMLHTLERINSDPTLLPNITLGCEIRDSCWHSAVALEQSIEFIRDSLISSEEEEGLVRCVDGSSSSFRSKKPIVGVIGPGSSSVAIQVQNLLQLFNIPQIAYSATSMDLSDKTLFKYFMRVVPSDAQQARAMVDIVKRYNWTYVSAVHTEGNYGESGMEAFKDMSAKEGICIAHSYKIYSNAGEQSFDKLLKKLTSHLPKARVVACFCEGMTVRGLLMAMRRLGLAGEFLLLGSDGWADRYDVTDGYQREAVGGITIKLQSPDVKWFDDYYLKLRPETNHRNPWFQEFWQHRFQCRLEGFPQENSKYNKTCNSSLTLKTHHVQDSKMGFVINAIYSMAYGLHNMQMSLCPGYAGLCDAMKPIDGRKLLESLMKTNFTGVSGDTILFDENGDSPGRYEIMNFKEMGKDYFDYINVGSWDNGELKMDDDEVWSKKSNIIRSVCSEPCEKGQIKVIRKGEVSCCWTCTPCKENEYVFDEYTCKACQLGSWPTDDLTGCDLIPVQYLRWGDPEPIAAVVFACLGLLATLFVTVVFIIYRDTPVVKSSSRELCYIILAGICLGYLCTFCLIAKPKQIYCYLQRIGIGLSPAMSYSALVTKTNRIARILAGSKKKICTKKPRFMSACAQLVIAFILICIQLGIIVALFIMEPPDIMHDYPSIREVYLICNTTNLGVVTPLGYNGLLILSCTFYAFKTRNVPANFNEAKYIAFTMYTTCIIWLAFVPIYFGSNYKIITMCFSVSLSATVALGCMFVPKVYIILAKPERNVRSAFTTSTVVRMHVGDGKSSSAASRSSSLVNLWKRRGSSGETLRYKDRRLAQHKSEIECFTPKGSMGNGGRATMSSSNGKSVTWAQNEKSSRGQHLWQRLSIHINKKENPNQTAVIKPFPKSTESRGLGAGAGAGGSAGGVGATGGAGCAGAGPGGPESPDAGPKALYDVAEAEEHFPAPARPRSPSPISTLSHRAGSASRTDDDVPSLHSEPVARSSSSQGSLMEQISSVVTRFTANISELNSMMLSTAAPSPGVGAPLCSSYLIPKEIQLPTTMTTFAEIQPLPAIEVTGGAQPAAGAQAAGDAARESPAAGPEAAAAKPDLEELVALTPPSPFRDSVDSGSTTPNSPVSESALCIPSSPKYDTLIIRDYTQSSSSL

EC50 [nM]	Compound
1170	C[C@@H](NC(=O)c1ccc(/N=N/c2cccc(F)c2)cn1)C(C)(C)O [compound 2, (R,E)-5-((3-fluorophenyl)diazenyl)-N-(3-hydroxy-3-methylbutan-2-yl)picolinamide]
5.25	C[C@@H](NC(=O)c1ccc(C#Cc2cccc(F)c2)cn1)C(C)(C)O [compound 1, VU0424465]

From doi:10.1101/2024.12.24.629646v1 (biorxiv, 2024)
